The NIST ThermoML archive (doi:10.1016/j.fluid.2018.01.017)
Numbers after ± are expanded uncertainties.

Experiments:
[1] = xn = mol fraction of the nth substance listed; details: 298.15 K, 86.6 kPa, Liquid; for speed of sound: Anton Parr, DSA 5000 densimeter and speed of sound analyzer; for mass density: Vibrating tube method
[2] = refractive index (Na D-line) (dimensionless); xn = mol fraction of the nth substance listed; details: 298.15 K, 86.6 kPa, Liquid, Standard Abbe refractometry

speed of sound ([1]; x2 = 0.5)	mass density ([1]; x2 = 0.5)	refractive index ([2]; x2 = 0.5)	speed of sound ([1]; x2 = 0.333)	mass density ([1]; x2 = 0.333)	refractive index ([2]; x2 = 0.333)	SMILES
1962.7 ± 1.7 m/s	1251.47 ± 0.54 kg/m3	1.4887 ± 0.0005	–	–	–	O=C(O)CC(=O)O [propanedioic acid] + C[N+](C)(C)CCO.[Cl-]
–	–	–	2062.3 ± 2.2 m/s	1193.93 ± 0.94 kg/m3	1.5041 ± 0.0006	NC(N)=O [urea] + C[N+](C)(C)CCO.[Cl-]
1925 ± 1.7 m/s	1210.93 ± 0.5 kg/m3	1.4809 ± 0.0005	–	–	–	O=C(O)C(=O)O [ethanedioic acid] + C[N+](C)(C)CCO.[Cl-]
